Data taken from patent publication US7261906B2, “Anti-cancer therapy agent of arsenic hexoxide (As4O6) of a natural chemical substance and its pharmaceutical composition” (priority 1998, dated 2007).

Experiment: Acute toxicity, single oral administration
Assay type: in vivo, Rats (Sprague Dawley strain)
Conditions: for Mortality, Days after treatment 1 / Mortality, Days after treatment 2 / Mortality, Days after treatment 3 / Mortality, Days after treatment 4 / Mortality, Days after treatment 5 / Mortality, Days after treatment 6 / Mortality, Days after treatment 7 / Mortality, Days after treatment 8 / Mortality, Days after treatment 9 / Mortality, Days after treatment 10 / Mortality, Days after treatment 11 / Mortality, Days after treatment 12 / Mortality, Days after treatment 13 / Mortality, Days after treatment 14 / Mortality, Hours after treatment 1 / Mortality, Hours after treatment 2 / Mortality, Hours after treatment 3 / Mortality, Hours after treatment 4 / Mortality, Hours after treatment 5 / Mortality, Hours after treatment 6 / Final mortality / Final mortality (dead/total): male
Experimental: The acute toxicity of oral administration of HD-2 was evaluated according to toxicity assessment criteria described in Article 96-8 of Notice on Food and Drug Safety (Apr. 16, 1994). Rats (Sprague Dawley strain) were used for animal experiments. Dosage of a single, oral administration ranged from 0.4 to 1.25 g/kg body weight in male rats and 0.4 to […] body weight in female rats. General conditions of the animals, toxic symptoms, and mortality were measured every hour for the initial 6 hours following the single administration and once a day afterwards for 14 days. Body weights were measured before starting the study, 7 days after the administration, and at autopsy. Expired rats were studied to find the cause of death at autopsy. […] Some rats manifesting these clinical symptoms expired, but others recovered to normal condition within 2 to 3 days of clinical symptoms.

## O1[As]2O[As]3O[As]1O[As](O2)O3 [HD-2, arsenic hexoxide (As4O6)]
0.4 g/kg B.W. oral
  Mortality, Days after treatment 1: 0
  Mortality, Days after treatment 2: 0
  Mortality, Days after treatment 3: 0
  Mortality, Days after treatment 4: 0
  Mortality, Days after treatment 5: 0
  Mortality, Days after treatment 6: 0
  Mortality, Days after treatment 7: 0
  Mortality, Days after treatment 8: 0
  Mortality, Days after treatment 9: 0
  Mortality, Days after treatment 10: 0
  Mortality, Days after treatment 11: 0
  Mortality, Days after treatment 12: 0
  Mortality, Days after treatment 13: 0
  Mortality, Days after treatment 14: 0
  Mortality, Hours after treatment 1: 0
  Mortality, Hours after treatment 2: 0
  Mortality, Hours after treatment 3: 0
  Mortality, Hours after treatment 4: 0
  Mortality, Hours after treatment 5: 0
  Mortality, Hours after treatment 6: 0
0.4 g/kg B.W. oral, 14 days
  Final mortality: 0%
  Final mortality (dead/total): 0/5
0.6 g/kg B.W. oral
  Mortality, Days after treatment 1: 0
  Mortality, Days after treatment 2: 0
  Mortality, Days after treatment 3: 0
  Mortality, Days after treatment 4: 0
  Mortality, Days after treatment 5: 0
  Mortality, Days after treatment 6: 0
  Mortality, Days after treatment 7: 0
  Mortality, Days after treatment 8: 0
  Mortality, Days after treatment 9: 0
  Mortality, Days after treatment 10: 0
  Mortality, Days after treatment 11: 0
  Mortality, Days after treatment 12: 0
  Mortality, Days after treatment 13: 0
  Mortality, Days after treatment 14: 0
  Mortality, Hours after treatment 1: 0
  Mortality, Hours after treatment 2: 0
  Mortality, Hours after treatment 3: 0
  Mortality, Hours after treatment 4: 0
  Mortality, Hours after treatment 5: 0
  Mortality, Hours after treatment 6: 0
0.6 g/kg B.W. oral, 14 days
  Final mortality: 0%
  Final mortality (dead/total): 0/5
0.8 g/kg B.W. oral
  Mortality, Days after treatment 1: 1
  Mortality, Days after treatment 2: 1
  Mortality, Days after treatment 3: 0
  Mortality, Days after treatment 4: 0
  Mortality, Days after treatment 5: 0
  Mortality, Days after treatment 6: 0
  Mortality, Days after treatment 7: 0
  Mortality, Days after treatment 8: 0
  Mortality, Days after treatment 9: 0
  Mortality, Days after treatment 10: 0
  Mortality, Days after treatment 11: 0
  Mortality, Days after treatment 12: 0
  Mortality, Days after treatment 13: 0
  Mortality, Days after treatment 14: 0
  Mortality, Hours after treatment 1: 0
  Mortality, Hours after treatment 2: 0
  Mortality, Hours after treatment 3: 0
  Mortality, Hours after treatment 4: 0
  Mortality, Hours after treatment 5: 0
  Mortality, Hours after treatment 6: 0
0.8 g/kg B.W. oral, 14 days
  Final mortality: 10%
  Final mortality (dead/total): 2/5
0.85 g/kg B.W. oral
  Mortality, Days after treatment 1: 2
  Mortality, Days after treatment 2: 1
  Mortality, Days after treatment 3: 0
  Mortality, Days after treatment 4: 0
  Mortality, Days after treatment 5: 0
  Mortality, Days after treatment 6: 0
  Mortality, Days after treatment 7: 0
  Mortality, Days after treatment 8: 0
  Mortality, Days after treatment 9: 0
  Mortality, Days after treatment 10: 0
  Mortality, Days after treatment 11: 0
  Mortality, Days after treatment 12: 0
  Mortality, Days after treatment 13: 0
  Mortality, Days after treatment 14: 0
  Mortality, Hours after treatment 1: 0
  Mortality, Hours after treatment 2: 0
  Mortality, Hours after treatment 3: 0
  Mortality, Hours after treatment 4: 0
  Mortality, Hours after treatment 5: 0
  Mortality, Hours after treatment 6: 0
0.85 g/kg B.W. oral, 14 days
  Final mortality: 60%
  Final mortality (dead/total): 3/5
1.25 g/kg B.W. oral
  Mortality, Days after treatment 1: 3
  Mortality, Days after treatment 2: 1
  Mortality, Days after treatment 3: 0
  Mortality, Days after treatment 4: 0
  Mortality, Days after treatment 5: 0
  Mortality, Days after treatment 6: 0
  Mortality, Days after treatment 7: 0
  Mortality, Days after treatment 8: 0
  Mortality, Days after treatment 9: 0
  Mortality, Days after treatment 10: 0
  Mortality, Days after treatment 11: 0
  Mortality, Days after treatment 12: 0
  Mortality, Days after treatment 13: 0
  Mortality, Days after treatment 14: 0
  Mortality, Hours after treatment 1: 0
  Mortality, Hours after treatment 2: 0
  Mortality, Hours after treatment 3: 0
  Mortality, Hours after treatment 4: 0
  Mortality, Hours after treatment 5: 0
  Mortality, Hours after treatment 6: 0
1.25 g/kg B.W. oral, 14 days
  Final mortality: 100%
  Final mortality (dead/total): 5/5
rats, single administration of 500 mg/kg body weight per day
  side effect: did not have any side effect
Single oral administration
  Autopsy findings of rats expired during the study period: expanded stomach and engorged liver
Single oral administration, 14 days
  Autopsy findings of rats killed at the end of the study: Significant findings related to HD-2 administration were not observed
Within 3 days of single oral administration
  Clinical symptoms: dose-dependent depression and dyspnea
